Experimental data published in patent US8747811B2, “Perylenequinone derivatives and uses thereof” (Quest Pharmatech, Inc., priority 2005, dated 2014).

What was measured:
[1] = Phase 1 clinical study, topical application to the back of patients with acne; assay type: in vivo, human; details: 10 patients with acne on the back
Source text: The primary objective of the study was to measure and quantify the fluorescence levels of ACP-compound 4 in sebaceous glands, epidermis and hair follicles at different time points after topical application. The study also monitored the safety of the drug product after topical administration. The study consisted of a group of 10 patients with acne on the back.

EMT-6 cells [2] = assay: Dark toxicity, clonogenic assay in EMT-6 cells; assay type: cell-based, mouse; details: no light
Method: EMT-6 cells in log phase growth were plated onto 35 mm dishes 24 hours prior to experimentation. Growth media was removed and replaced with media containing compounds (4) and (5) at the doses (0, 2.5 μM, 5 μM and 20 μM). The plates were then kept at 37° C. for 3 hours in the dark and then the cells were washed 2 times in PBS then trypsinized and re-plated at 200 cells/60 mm dish in normal RPMI growth media. The cells were allowed to grow for 7 days and then stained with Methylene Blue and the surviving colonies counted.
EMT-6 cells in log phase growth were plated onto 35 mm tissue culture dishes 24 hours prior to experimentation. Growth media was removed and replaced with media containing compounds (4) or (5) at the above doses—0, 2.5 μM, 5 μM and 20 μM (Initially, the drugs were dissolved in pure DMSO @ a concentration of 2 mM). They were diluted down to the appropriate concentrations in RPMI growth media. The plates were then kept at 37° C. for 3 hours in the dark and then the cells were washed 2 times in PBS and finally had 2 ml of RPMI added to each dish. Then, the dark toxicity samples were kept covered at room temperature for the equivalent time taken for light treatment of the other samples. […] The cells were allowed to grow for 7 days and then stained with Methylene Blue and the surviving colonies counted.

BT549 cells = assay: Photodynamic activity, tritiated thymidine uptake in BT549 cells; assay type: cell-based; details: for activity in the absence of light treatment: no light; for cell death after light treatment: tritiated thymidine uptake, with light
Source text: The photodynamic activity of compound 4 has been studied in two cell lines cells by measuring cell death post treatment by tritiated thymidine uptake (in […] cells) and clonogenic assays (in EMT-6 cells).
The photodynamic activity of ACP-compound 5 was studied in two cell lines cells by measuring cell death post treatment by tritiated thymidine uptake (in BT549 cells) and clonogenic assays (in EMT-6 cells).

normal mouse skin = assay: PDT effect on normal mouse skin; assay type: in vivo
Source text: Likewise, the photosensitizer alone without light treatment was also ineffective.

[3] = UV-visible absorption spectra in DMSO; assay type: physicochemical
Source text: The absorption spectra of compounds (4) and (5) recorded in DMSO are shown in FIG. 1 along with the parent compound (2). Based on the study of absorption spectra of hypocrellin B (2) (Diwu et al. Sinica Sol. B 18, 1993, 131), the shorter wavelength absorption bands are assigned to the π-π* transition, and the absorption bands at the longer wavelength is the relation to […] charge transfer (ICT) which may take on some active role in the photodynamic activity of the molecule. From FIG. 1, the absorption at the longer wavelengths of compounds (4) and (5) has enhanced, as compared to the parent hypocrellin B (2). The maximum absorption of compounds (4) and (5) is around 600-700 nm in DMSO which helps in tissue penetration, while the parent compound hypocrellin (2) has maximum absorption at 580 nm in DMSO. When an electron donating group like 3-dimethylaminopropylamine is introduced in the quinonoid molecule, its interaction with the adjacent carbonyl group enhances the red shift in the absorption spectra, thereby leading to an extended red shift spectral region (photodynamic window) which is important for PDT.

EMT-6 cells [4] = assay: Light treatment (PDT), clonogenic assay in EMT-6 cells; assay type: cell-based, mouse; details: for cell killing ability: 0-20 μM drug, graded light doses, 635 nm; for cell death after light treatment: EMT-6 cells, clonogenic assay, with light; for cell survival: Five μM drug concentration with 2 J/cm^2 light treatment, 635 nm laser
Method: EMT-6 cells in log phase growth were plated onto 35 mm tissue culture dishes 24 hours prior to experimentation. Growth media was removed and replaced with media containing compounds (4) or (5) at the above doses—0, 2.5 μM, 5 μM and 20 μM (Initially, the drugs were dissolved in pure DMSO @ a concentration of 2 mM). They were diluted down to the appropriate concentrations in RPMI growth media. The plates were then kept at 37° C. for 3 hours in the dark and then the cells were washed 2 times in PBS and finally had 2 ml of RPMI added to each dish. Then, the dark toxicity samples were kept covered at room temperature for the equivalent time taken for light treatment of the other samples. Light treated samples were subjected to grades doses of light (0, 0.5, 1, 2.5 and 5 J/cm^2) from 635 nm laser with a fluency rate of 150 milli watts. The media was removed and the cells trypsinized and re-plated at 200 cells/60 mm dish in normal RPMI growth media. The cells were allowed to grow for 7 days and then stained with Methylene Blue and the surviving colonies counted.

[5] = system: human (ex vivo) skin samples; assay: PDT treated human (ex vivo) skin samples, histology
[6] = Fluorescence spectra in chloroform; assay type: physicochemical
Source text: The introduction of the extra cyclic ring in compound (5) have shown a new fluorescent band at longer wavelength (around 725 nm), because of the […] H-atom transfer process. The new florescent band is considered to be related to the ICT between the amino group and the […] carbonyl group.

EMT-6 mouse tumor model = assay: PDT in EMT-6 mouse tumor model; assay type: in vivo; details: liposomal formulation (DPPC and cholesterol) combined with light treatment
Source text: Liposomal formulations of compound 5 for systemic delivery of the photosensitizer. The photosensitizer is formulated with a mixture of dipalmitoyl phosphatidylcholine (DPPC) and cholesterol and extruded through membrane of different pore size until the required size of liposomes was achieved.

Structure (SMILES)	adverse events [1]	activity in the absence of light treatment (EMT-6 cells [2])	activity in the absence of light treatment (BT549 cells)	cell death after light treatment (BT549 cells)	tissue damage (normal mouse skin; 70 J/cm^2, penetration for 3 to 5 hours)	tissue damage (normal mouse skin; 70 J/cm^2, penetration time of 1 or 2 hours, 7 days post treatment)	tissue damage (normal mouse skin; 100 J/cm^2, 1 hour of penetration)	tissue damage (normal mouse skin; 100 J/cm^2, 2 hours of penetration)	tissue damage (normal mouse skin; 100 J/cm^2, 3 hours of penetration)	tissue damage, photosensitizer alone (normal mouse skin; without light treatment)	absorption at the longer wavelengths as compared to the parent hypocrellin B (2) [3]	cell killing ability (EMT-6 cells [4])	cell death after light treatment (EMT-6 cells [4])	cell survival (EMT-6 cells [4])	histological changes after PDT [5]	new fluorescent band at longer wavelength [6]	tumor response (EMT-6 mouse tumor model)	maximum absorption [3]
COc1c(O)c2c(=O)cc(OC)c3c4c(OC)cc(=O)c5c(O)c(NCCCN(C)C)c6c(c(c1C(C(C)=O)C(C)=C6)c23)c54 (stereo not shown) [Compound 4, 2-(N,N-dimethylaminopropyl)-amino-15-acetyl-3,10-dihydroxy-6,7,11-trimethoxy-14-methyl-15-H-cyclohepta(ghi)perylene-4,9-dione]	No adverse events have been observed	No significant activity	No significant activity	significant cell death	significant epidermal apoptosis	mild injury to the epidermal cells	only the epithelium and part of the fatty layer showed damage	Apoptosis of epidermal cells, basal layer and hair follicle	the whole tissue layer, including muscle layer showed significant damage	ineffective	enhanced	dose dependent cell killing ability with increasing light and drug dose	significant cell death	1 cell per 1000 plated	no histological changes up to two days post treatment but progressive necrotic/apoptotic changes thereafter	–	–	–
COc1c(O)c2c(=O)cc(OC)c3c4c(OC)cc(=O)c5c6c(c7c(c(c1C(C(C)=O)C(C)=C7)c23)c54)NC1CCCCC1N6 (stereo not shown) [Compound 5, (2,3b)-Octahydroquinoxalin-yl-hypocrellin B derivative]	–	No significant activity	No significant activity	significant cell death	–	–	–	–	–	–	enhanced	dose dependent cell killing ability with increasing light and drug dose	significant cell death	1 cell per 1000 plated	–	around 725 nm	Complete cure of the implanted tumor	–
COc1c2c3c4c(c(OC)c(=O)c5c(O)cc(OC)c(c6c(OC)cc(O)c(c1=O)c63)c54)C(C(C)=O)=C(C)C2 [hypocrellin (2), hypocrellin B, reference compound]	–	–	–	–	–	–	–	–	–	–	–	–	–	–	–	–	–	580 nm
